Measured values from patent US12319664B2, “Herbicidally active 3-phenylisoxazoline-5-carboxamides of cyclopentenylcarboxylic acid derivatives” (Bayer Aktiengesellschaft, priority 2018, dated 2025).

How the values were obtained:
[1] = system: ALOMY; assay: Pre-emergence herbicidal action against ALOMY; type: in vivo, Alopecurus myosuroides; settings: application rate 80 g/ha, scored visually after about 3 weeks vs untreated controls (100% = plants have died, 0% = like control plants)
Summary of the method: (§1)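 Seeds of weeds and crops sown in pots and covered with soil; WP or EC formulations sprayed onto the soil surface as aqueous suspension/emulsion with 0.5% additive at 600 l/ha water. Greenhouse growth; visual % activity versus untreated controls scored after about 3 weeks (100% = plants dead, 0% = like control).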

[2] = system: AVEFA; assay: Pre-emergence herbicidal action against AVEFA; type: in vivo, Avena fatua; settings: application rate 80 g/ha, scored visually after about 3 weeks vs untreated controls (100% = plants have died, 0% = like control plants)
Summary of the method: as §1

[3] = system: ECHCG; assay: Pre-emergence herbicidal action against ECHCG; type: in vivo, Echinochloa crus-galli; settings: application rate 80 g/ha, scored visually after about 3 weeks vs untreated controls (100% = plants have died, 0% = like control plants)
Text: (§2) 1. Pre-emergence herbicidal action against harmful plants and crop plant compatibility Seeds of monocotyledonous and dicotyledonous weed plants and crop plants are placed in plastic or wood-fibre pots and covered with soil. The compounds of the invention, formulated in the form of wettable powders (WP) or as emulsion concentrates (EC), are then applied onto the surface of the covering soil as aqueous suspension or emulsion with addition of 0.5% additive at a water application rate of 600 l/ha (converted). After the treatment, the pots are placed in a greenhouse and kept under good growth conditions for the trial plants. After about 3 weeks, the effect of the preparations is scored visually in comparison with untreated controls as percentages. For example, 100% activity=the plants have died, 0% activity=like control plants. [table]

[4] = system: LOLRI; assay: Pre-emergence herbicidal action against LOLRI; type: in vivo, Lolium rigidum; settings: application rate 80 g/ha, scored visually after about 3 weeks vs untreated controls (100% = plants have died, 0% = like control plants)
Summary of the method: as §1

[5] = system: SETVI; assay: Pre-emergence herbicidal action against SETVI; type: in vivo, Setaria viridis; settings: application rate 80 g/ha, scored visually after about 3 weeks vs untreated controls (100% = plants have died, 0% = like control plants)
Summary of the method: as §1

[6] = system: AMARE; assay: Pre-emergence herbicidal action against AMARE; type: in vivo, Amaranthus retroflexus; settings: application rate 80 g/ha
Summary of the method: as §1

[7] = system: MATIN; assay: Pre-emergence herbicidal action against MATIN; type: in vivo, Matricaria inodora; settings: application rate 80 g/ha, scored visually after about 3 weeks vs untreated controls (100% = plants have died, 0% = like control plants)
Text: as §2

[8] = system: PHBPU; assay: Pre-emergence herbicidal action against PHBPU; type: in vivo, Pharbitis purpurea; settings: application rate 80 g/ha
Text: as §2

[9] = system: POLCO; assay: Pre-emergence herbicidal action against POLCO; type: in vivo, Polygonum convolvulus; settings: application rate 80 g/ha
Summary of the method: as §1

[10] = system: STEME; assay: Pre-emergence herbicidal action against STEME; type: in vivo, Stellaria media; settings: application rate 80 g/ha
Summary of the method: as §1

[11] = system: ALOMY; assay: Post-emergence herbicidal action against ALOMY; type: in vivo, Alopecurus myosuroides; settings: application rate 80 g/ha, rated visually after about 3 weeks
Summary of the method: (§3)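 Test plants grown from seed in greenhouse pots of sandy loam were treated post-emergence at the one-leaf stage. Damage, from 0% (like controls) to 100% (plants died), was assessed visually about 3 weeks later.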

[12] = system: AVEFA; assay: Post-emergence herbicidal action against AVEFA; type: in vivo, Avena fatua; settings: application rate 80 g/ha, rated visually after about 3 weeks
Summary of the method: as §3

[13] = system: ECHCG; assay: Post-emergence herbicidal action against ECHCG; type: in vivo, Echinochloa crus-galli; settings: application rate 80 g/ha, rated visually after about 3 weeks
Summary of the method: as §3

[14] = system: LOLRI; assay: Post-emergence herbicidal action against LOLRI; type: in vivo, Lolium rigidum; settings: application rate 80 g/ha, rated visually after about 3 weeks
Summary of the method: as §3

[15] = system: SETVI; assay: Post-emergence herbicidal action against SETVI; type: in vivo, Setaria viridis; settings: application rate 80 g/ha, rated visually after about 3 weeks
Summary of the method: as §3

[16] = system: AMARE; assay: Post-emergence herbicidal action against AMARE; type: in vivo, Amaranthus retroflexus; settings: application rate 80 g/ha, rated visually about 3 weeks after treatment
Summary of the method: as §3

[17] = system: STEME; assay: Post-emergence herbicidal action against STEME; type: in vivo, Stellaria media; settings: application rate 80 g/ha, rated visually about 3 weeks after treatment
Summary of the method: as §3

[18] = system: VIOTR; assay: Pre-emergence herbicidal action against VIOTR; type: in vivo, Viola tricolor; settings: application rate 80 g/ha
Summary of the method: as §1

[19] = system: HORMU; assay: Pre-emergence herbicidal action against HORMU; type: in vivo, Hordeum murinum; settings: application rate 80 g/ha
Summary of the method: as §1

[20] = system: MATIN; assay: Post-emergence herbicidal action against MATIN; type: in vivo, Matricaria inodora; settings: application rate 80 g/ha, rated visually about 3 weeks after treatment
Summary of the method: as §3

[21] = system: PHBPU; assay: Post-emergence herbicidal action against PHBPU; type: in vivo, Pharbitis purpurea; settings: application rate 80 g/ha, rated visually about 3 weeks after treatment
Summary of the method: as §3

[22] = system: ABUTH; assay: Pre-emergence herbicidal action against ABUTH; type: in vivo, Abutilon theophrasti; settings: application rate 80 g/ha, scored visually after about 3 weeks vs untreated controls (100% = plants have died, 0% = like control plants)
Text: as §2

[23] = system: VERPE; assay: Pre-emergence herbicidal action against VERPE; type: in vivo, Veronica persica; settings: application rate 80 g/ha
Text: as §2

[24] = system: POLCO; assay: Post-emergence herbicidal action against POLCO; type: in vivo, Polygonum convolvulus; settings: application rate 80 g/ha, rated visually about 3 weeks after treatment
Summary of the method: as §3

Row | SMILES | Herbicidal action against [%] ALOMY [1] [%] | Herbicidal action against [%] AVEFA [2] [%] | Herbicidal action against [%] ECHCG [3] [%] | Herbicidal action against [%] LOLRI [4] [%] | Herbicidal action against [%] SETVI [5] [%] | Herbicidal action against [%] AMARE [6] [%] | Herbicidal action against [%] MATIN [7] [%] | Herbicidal action against [%] PHBPU [8] [%] | Herbicidal action against [%] POLCO [9] [%] | Herbicidal action against [%] STEME [10] [%] | Herbicidal action against [%] ALOMY [11] [%] | Herbicidal action against [%] AVEFA [12] [%] | Herbicidal action against [%] ECHCG [13] [%] | Herbicidal action against [%] LOLRI [14] [%] | Herbicidal action against [%] SETVI [15] [%] | Herbicidal action against [%] STEME [17] [%] | Herbicidal action against [%] VIOTR [18] [%] | Herbicidal action against [%] HORMU [19] [%] | other results
1 | COC(=O)[C@@H]1C=C[C@H](NC(=O)C2(C)CC(c3cccc(F)c3)=NO2)C1 (stereo partly drawn) [Example I-004] | 100 | 90 | 100 | 90 | 100 | 80 | 80 | 90 | 100 | 100 | 80 | 90 | 80 | 80 | 80 | 80 |  |  | Herbicidal action against [%] AMARE [16]: 80%
2 | CC1(C(=O)N[C@H]2C=C[C@@H](C(=O)O)C2)CC(c2cccc(F)c2)=NO1 (stereo partly drawn) [Example I-002] | 90 | 80 | 90 | 100 | 100 | 90 | 80 | 90 | 90 | 100 | 90 | 80 | 80 | 80 | 80 | 90 | 80 | 80 | Herbicidal action against [%] MATIN [20]: 80%; Herbicidal action against [%] PHBPU [21]: 80%
3 | CN(C)C(=O)C1=CCC(NC(=O)C2(C)CC(c3cccc(F)c3)=NO2)C1 (mixture of isomers) [IV-02] | 100 | 90 | 90 | 100 | 90 | 100 |  | 80 | 100 | 90 |  |  |  |  |  |  | 90 | 100 | Herbicidal action against [%] ABUTH [22]: 80%; Herbicidal action against [%] VERPE [23]: 90%; Herbicidal action against [%] POLCO [24]: 80%
